Experimental data from patent US20230085307A1, “PYRIDAZINONE COMPOUND AND HERBICIDE” (NISSAN CHEMICAL CORPORATION, priority 2019, published 2023).

Assays:
lambsquarters [1] = assay: Test Example 5: herbicidal effect by foliage application, plastic box (Table 20, symbol O); format: in vivo, lambsquarters (Chenopodium album); conditions: foliage application; for effect on lambsquarters (O): 3 weeks after application
How it was run: (§1)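 Plants were sown into sterilized diluvial soil under about 1.5 cm cover and kept in a greenhouse at 25° C. to 30° C. Fourteen days on, foliage received an even spray of the diluted emulsion. Herbicidal or crop effect was judged three weeks afterwards.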

Chinese sprangletop = assay: Test Example 3: herbicidal effect by foliage application, Wagner pot (Table 18, symbol D); format: in vivo, chinese sprangletop (Leptochloa chinensis); conditions: for herbicidal effect on D (Chinese sprangletop), rating 0-5: 320 g/ha
How it was run: (§2)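 Plants were sown in alluvial soil held under 0.1–0.5 cm standing water and grown 14 days in a greenhouse at 25–30 °C. An emulsifiable formulation, water-diluted to the set dose, was then sprayed onto the foliage, and effects were scored three weeks later using previously defined criteria.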

blackgrass = assay: Test Example 5: herbicidal effect by foliage application, plastic box (Table 20, symbol J); format: in vivo, blackgrass (Alopecurus myosuroides); conditions: foliage application; for effect on blackgrass (J): 3 weeks after application
How it was run: as §1

Italian ryegrass [2] = assay: Test Example 5: herbicidal effect by foliage application, plastic box (Table 20, symbol K); format: in vivo, Italian ryegrass (Lolium multiflorum); conditions: foliage application; for effect on Italian ryegrass (K): 3 weeks after application
How it was run: as §1

Italian ryegrass [3] = assay: Test Example 4: herbicidal effect by soil treatment (Table 19, symbol K); format: in vivo, Italian ryegrass (Lolium multiflorum); conditions: for herbicidal effect rating, K: Italian ryegrass: 320 g/ha
How it was run: (§3)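 In this soil treatment, the formulated compound reached the seeds only through the soil: seeds were buried about 1.5 cm deep in sterilized diluvial soil, then the diluted emulsion was sprayed over the surface. After three weeks at 25° C. to 30° C. in a greenhouse, effects were graded on criteria from an earlier test.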

green foxtail = assay: Test Example 5: herbicidal effect by foliage application, plastic box (Table 20, symbol G); format: in vivo, green foxtail (Setaria viridis); conditions: foliage application; for effect on green foxtail (G): 3 weeks after application
How it was run: as §1

rice flat sedge = assay: Test Example 3: herbicidal effect by foliage application, Wagner pot (Table 18, symbol E); format: in vivo, rice flat sedge (Cyperus iria); conditions: for herbicidal effect on E (rice flat sedge), rating 0-5: 320 g/ha
How it was run: as §2

barnyard grass = assay: Test Example 3: herbicidal effect by foliage application, Wagner pot (Table 18, symbol H); format: in vivo, barnyard grass (Echinochloa crus-galli); conditions: for herbicidal effect on H (barnyard grass), rating 0-5: 320 g/ha
How it was run: as §2

velvetleaf = assay: Test Example 5: herbicidal effect by foliage application, plastic box (Table 20, symbol M); format: in vivo, velvetleaf (Abutilon theophrasti); conditions: foliage application; for effect on velvetleaf (M): 3 weeks after application
How it was run: as §1

southern crabgrass = assay: Test Example 5: herbicidal effect by foliage application, plastic box (Table 20, symbol F); format: in vivo, southern crabgrass (Digitaria ciliaris); conditions: foliage application; for effect on southern crabgrass (F): 3 weeks after application
How it was run: as §1

late watergrass = assay: Test Example 1: herbicidal activity, application before weed generation under submerged conditions (Table 16, symbol A); format: in vivo, late watergrass (Echinochloa oryzicola); conditions: for Herbicidal effect on A: late watergrass (grade 0-5): 320 g/ha applied herbicide
How it was run: (§4)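 Submerged Wagner pots (alluvial soil, 4 cm water) sown with weed seeds and planted with 2.5-leaf rice seedlings; emulsifiable concentrate diluted in water applied to water surface on sowing day. Held in greenhouse at 25-30 °C; injury scored 0-5 by herbicidal rate after three weeks.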

Japanese bulrush = assay: Test Example 1: herbicidal activity, application before weed generation under submerged conditions (Table 16, symbol B); format: in vivo, Japanese bulrush (Schoenoplectus juncoides); conditions: for Herbicidal effect on B: Japanese bulrush (grade 0-5): 320 g/ha applied herbicide
How it was run: as §4

chickweed = assay: Test Example 4: herbicidal effect by soil treatment (Table 19, symbol P); format: in vivo, common chickweed (Stellaria media); conditions: for herbicidal effect rating, P: chickweed: 320 g/ha
How it was run: as §3

wild oat = assay: Test Example 5: herbicidal effect by foliage application, plastic box (Table 20, symbol I); format: in vivo, wild oat (Avena fatua); conditions: foliage application; for effect on wild oat (I): 3 weeks after application
How it was run: as §1

oval-leafed pondweed = assay: Test Example 1: herbicidal activity, application before weed generation under submerged conditions (Table 16, symbol C); format: in vivo, oval-leafed pondweed (Monochoria vaginalis); conditions: for Herbicidal effect on C: oval-leafed pondweed (grade 0-5): 320 g/ha applied herbicide
How it was run: as §4

windgrass = assay: Test Example 4: herbicidal effect by soil treatment (Table 19, symbol L); format: in vivo, windgrass (Apera spica-venti); conditions: for herbicidal effect rating, L: windgrass: 320 g/ha
How it was run: as §3

lambsquarters [4] = assay: Test Example 4: herbicidal effect by soil treatment (Table 19, symbol O); format: in vivo, lambsquarters (Chenopodium album); conditions: for herbicidal effect rating, O: lambsquarters: 320 g/ha
How it was run: as §3

[5] = 320 g/ha, evaluated three weeks after application
[6] = amount of applied herbicide 320 g/ha
[7] = 274 g/ha, three weeks after application
[8] = amount of applied herbicide 274 g/ha

Row | Compound | Herbicidal effect on A: late watergrass (grade 0-5) (late watergrass) | Herbicidal effect on B: Japanese bulrush (grade 0-5) (Japanese bulrush) | Herbicidal effect on C: oval-leafed pondweed (grade 0-5) (oval-leafed pondweed) | effect on lambsquarters (O) (lambsquarters [1]; 320 g/ha) | herbicidal effect on D (Chinese sprangletop), rating 0-5 (Chinese sprangletop) | effect on blackgrass (J) (blackgrass; 320 g/ha) | effect on Italian ryegrass (K) (Italian ryegrass [2]; 320 g/ha) | herbicidal effect rating, K: Italian ryegrass (Italian ryegrass [3]) | effect on green foxtail (G) (green foxtail; 320 g/ha) | herbicidal effect on E (rice flat sedge), rating 0-5 (rice flat sedge) | herbicidal effect on H (barnyard grass), rating 0-5 (barnyard grass) | effect on velvetleaf (M) (velvetleaf; 320 g/ha) | effect on southern crabgrass (F) (southern crabgrass; 320 g/ha) | herbicidal effect rating, P: chickweed (chickweed) | effect on wild oat (I) (wild oat; 320 g/ha) | herbicidal effect rating, L: windgrass (windgrass) | herbicidal effect rating, O: lambsquarters (lambsquarters [4]) | further results
1 | Cc1nn(C)c(=O)c(-c2c(-c3ccc(OC4CC4)cc3)sc3ccc(F)cc23)c1O [2-217] | 5 (Herbicidal rate of 90% or more (almost completely withered)) | 5 (Herbicidal rate of 90% or more (almost completely withered)) | 4 (Herbicidal rate of 70% or more and less than 90%) | – | – | – | – | – | – | – | – | – | – | – | – | – | – | herbicidal effect on O: lambsquarters (criteria 0-5) (lambsquarters [1]; [5]): 4 (Herbicidal rate of 70% or more and less than 90%); herbicidal effect on D: Chinese sprangletop (Chinese sprangletop; [6]): 5 (Herbicidal rate of 90% or more (almost completely withered)); herbicidal effect on J: blackgrass (criteria 0-5) (blackgrass; [5]): 1 (Herbicidal rate of 5% or more and less than 20%); herbicidal effect on K: Italian ryegrass (criteria 0-5) (Italian ryegrass [2]; [5]): 5 (Herbicidal rate of 90% or more (almost completely withered)); K: Italian ryegrass, herbicidal effect rating (Italian ryegrass [3]; [6]): 4 (Herbicidal rate of 70% or more and less than 90%); herbicidal effect on G: green foxtail (criteria 0-5) (green foxtail; [5]): 4 (Herbicidal rate of 70% or more and less than 90%); herbicidal effect on E: rice flat sedge (rice flat sedge; [6]): 5 (Herbicidal rate of 90% or more (almost completely withered)); herbicidal effect on H: barnyard grass (barnyard grass; [6]): 5 (Herbicidal rate of 90% or more (almost completely withered)); herbicidal effect on M: velvetleaf (criteria 0-5) (velvetleaf; [5]): 5 (Herbicidal rate of 90% or more (almost completely withered)); herbicidal effect on F: southern crabgrass (criteria 0-5) (southern crabgrass; [5]): 3 (Herbicidal rate of 40% or more and less than 70%); P: chickweed, herbicidal effect rating (chickweed; [6]): 4 (Herbicidal rate of 70% or more and less than 90%); herbicidal effect on I: wild oat (criteria 0-5) (wild oat; [5]): 4 (Herbicidal rate of 70% or more and less than 90%); L: windgrass, herbicidal effect rating (windgrass; [6]): 0 (Herbicidal rate of 5% or less (almost no effect)); O: lambsquarters, herbicidal effect rating (lambsquarters [4]; [6]): 4 (Herbicidal rate of 70% or more and less than 90%)
2 | Cc1nn(C)c(=O)c(-c2c(-c3ccc(OC4CCCC4)cc3)sc3ccc(F)cc23)c1O [2-039] | 3 (Herbicidal rate of 40% or more and less than 70%) | 4 (Herbicidal rate of 70% or more and less than 90%) | 5 (Herbicidal rate of 90% or more (almost completely withered)) | 5 (Herbicidal rate of 90% or more (almost completely withered)) | 5 (Herbicidal rate of 90% or more (almost completely withered)) | 1 (Herbicidal rate of 5% or more and less than 20%) | 1 (Herbicidal rate of 5% or more and less than 20%) | 0 (Herbicidal rate of 5% or less (almost no effect)) | 5 (Herbicidal rate of 90% or more (almost completely withered)) | 3 (Herbicidal rate of 40% or more and less than 70%) | 5 (Herbicidal rate of 90% or more (almost completely withered)) | 3 (Herbicidal rate of 40% or more and less than 70%) | 4 (Herbicidal rate of 70% or more and less than 90%) | 3 (Herbicidal rate of 40% or more and less than 70%) | 4 (Herbicidal rate of 70% or more and less than 90%) | 0 (Herbicidal rate of 5% or less (almost no effect)) | 0 (Herbicidal rate of 5% or less (almost no effect)) | –
3 | COc1ccccc1-c1sc2cc(C)ccc2c1-c1c(O)c(C)nn(C)c1=O [3-049] | – | – | – | – | – | – | – | – | – | – | – | – | – | – | – | – | – | O: lambsquarters, herbicidal effect grade (lambsquarters [1]; [7]): 4 (Herbicidal rate of 70% or more and less than 90%); herbicidal effect on Chinese sprangletop (D) (Chinese sprangletop; 274 g/ha): 5 (Herbicidal rate of 90% or more (almost completely withered)); J: blackgrass, herbicidal effect grade (blackgrass; [7]): 5 (Herbicidal rate of 90% or more (almost completely withered)); K: Italian ryegrass, herbicidal effect grade (Italian ryegrass [2]; [7]): 5 (Herbicidal rate of 90% or more (almost completely withered)); K: Italian ryegrass, herbicidal effect grade (Italian ryegrass [3]; [8]): 5 (Herbicidal rate of 90% or more (almost completely withered)); G: green foxtail, herbicidal effect grade (green foxtail; [7]): 5 (Herbicidal rate of 90% or more (almost completely withered)); herbicidal effect on rice flat sedge (E) (rice flat sedge; 274 g/ha): 3 (Herbicidal rate of 40% or more and less than 70%); herbicidal effect on barnyard grass (H) (barnyard grass; 274 g/ha): 5 (Herbicidal rate of 90% or more (almost completely withered)); M: velvetleaf, herbicidal effect grade (velvetleaf; [7]): 5 (Herbicidal rate of 90% or more (almost completely withered)); F: southern crabgrass, herbicidal effect grade (southern crabgrass; [7]): 5 (Herbicidal rate of 90% or more (almost completely withered)); Herbicidal effect, A: late watergrass (late watergrass; [8]): 5 (Herbicidal rate of 90% or more (almost completely withered)); Herbicidal effect, B: Japanese bulrush (Japanese bulrush; [8]): 3 (Herbicidal rate of 40% or more and less than 70%); P: chickweed, herbicidal effect grade (chickweed; [8]): 4 (Herbicidal rate of 70% or more and less than 90%); I: wild oat, herbicidal effect grade (wild oat; [7]): 5 (Herbicidal rate of 90% or more (almost completely withered)); Herbicidal effect, C: oval-leafed pondweed (oval-leafed pondweed; [8]): 3 (Herbicidal rate of 40% or more and less than 70%); L: windgrass, herbicidal effect grade (windgrass; [8]): 5 (Herbicidal rate of 90% or more (almost completely withered)); O: lambsquarters, herbicidal effect grade (lambsquarters [4]; [8]): 4 (Herbicidal rate of 70% or more and less than 90%)
4 | CCCCOc1ccc(-c2sc3ccc(F)cc3c2-c2c(OC(=O)CCC)c(C)nn(C)c2=O)cc1 [2-037] | 3 (Herbicidal rate of 40% or more and less than 70%) | 2 (Herbicidal rate of 20% or more and less than 40%) | 3 (Herbicidal rate of 40% or more and less than 70%) | 4 (Herbicidal rate of 70% or more and less than 90%) | 2 (Herbicidal rate of 20% or more and less than 40%) | 0 (Herbicidal rate of 5% or less (almost no effect)) | 0 (Herbicidal rate of 5% or less (almost no effect)) | 0 (Herbicidal rate of 5% or less (almost no effect)) | 3 (Herbicidal rate of 40% or more and less than 70%) | 4 (Herbicidal rate of 70% or more and less than 90%) | 4 (Herbicidal rate of 70% or more and less than 90%) | 5 (Herbicidal rate of 90% or more (almost completely withered)) | 2 (Herbicidal rate of 20% or more and less than 40%) | 1 (Herbicidal rate of 5% or more and less than 20%) | 0 (Herbicidal rate of 5% or less (almost no effect)) | 0 (Herbicidal rate of 5% or less (almost no effect)) | 2 (Herbicidal rate of 20% or more and less than 40%) | –
